Assays:
Type in all cases: in vivo
[1] = system: barnyardgrass (Echinochloa crus-galli); assay: Test G Pre-Emergence Protocol; conditions: Echinochloa crus-galli, pre-emergence, 312 h, evaluated after 13 days; for pest or weed control at 15.625 g/ha: 15.625 g ai/ha; for pest or weed control at 15.625 g/ha / pest or weed control at 250 g/ha: read-out: Barnyardgrass damage rating (100=total damage to plant; 0=no damage to plant); for pest or weed control at 62.5 g/ha: 62.5 g ai/ha, 100=total damage to plant, 0=no damage to plant, read-out: Barnyardgrass damage rating; for pest or weed control at 250 g/ha: 250 g ai/ha
Outline: (§1)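 Pre-emergence spray, 15.625/62.5/250 g/ha, vehicle acetone:water 50:50 + 0.5% Tween 20, applied 1 d after sowing. Glasshouse 24/16° C, 14 h light, 65% RH, watered twice daily. Visual damage rating at 13 d, 0–100 scale.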

corn (Zea mays) [2] = assay: Test G Pre-Emergence Protocol; conditions: Zea mays, pre-emergence, 312 h, evaluated after 13 days; for plant injury at 15.625 g/ha: 15.625 g ai/ha; for plant injury at 15.625 g/ha / plant injury at 250 g/ha: read-out: Corn damage rating (100=total damage to plant; 0=no damage to plant); for plant injury at 62.5 g/ha: 62.5 g ai/ha, 100=total damage to plant, 0=no damage to plant, read-out: Corn damage rating; for plant injury at 250 g/ha: 250 g ai/ha
Outline: as §1

[3] = system: giant foxtail (Setaria faberi); assay: Test G Pre-Emergence Protocol; conditions: Setaria faberi, pre-emergence, 312 h, evaluated after 13 days; for pest or weed control at 15.625 g/ha: 15.625 g ai/ha; for pest or weed control at 15.625 g/ha / pest or weed control at 250 g/ha: read-out: Foxtail, Giant damage rating (100=total damage to plant; 0=no damage to plant); for pest or weed control at 62.5 g/ha: 62.5 g ai/ha, 100=total damage to plant, 0=no damage to plant, read-out: Foxtail, Giant damage rating; for pest or weed control at 250 g/ha: 250 g ai/ha
Outline: as §1

[4] = system: ivy-leaved morning glory (Ipomoea hederacea); assay: Test G Pre-Emergence Protocol; conditions: Ipomoea, pre-emergence, 312 h, evaluated after 13 days; for pest or weed control at 15.625 g/ha: 15.625 g ai/ha; for pest or weed control at 15.625 g/ha / pest or weed control at 250 g/ha: read-out: Morningglory, Ivy-leaved damage rating (100=total damage to plant; 0=no damage to plant); for pest or weed control at 62.5 g/ha: 62.5 g ai/ha, 100=total damage to plant, 0=no damage to plant, read-out: Morningglory, Ivy-leaved damage rating; for pest or weed control at 250 g/ha: 250 g ai/ha
Outline: as §1

[5] = system: redroot pigweed (Amaranthus retroflexus); assay: Test G Pre-Emergence Protocol; conditions: Amaranthus retroflexus, pre-emergence, 312 h, evaluated after 13 days; for pest or weed control at 15.625 g/ha: 15.625 g ai/ha; for pest or weed control at 15.625 g/ha / pest or weed control at 250 g/ha: read-out: Pigweed, Redroot damage rating (100=total damage to plant; 0=no damage to plant); for pest or weed control at 62.5 g/ha: 62.5 g ai/ha, 100=total damage to plant, 0=no damage to plant, read-out: Pigweed, Redroot damage rating; for pest or weed control at 250 g/ha: 250 g ai/ha
Outline: as §1

[6] = system: velvetleaf (Abutilon theophrasti); assay: Test G Pre-Emergence Protocol; conditions: Abutilon theophrasti, pre-emergence, 312 h, evaluated after 13 days; for pest or weed control at 15.625 g/ha: 15.625 g ai/ha; for pest or weed control at 15.625 g/ha / pest or weed control at 250 g/ha: read-out: Velvetleaf damage rating (100=total damage to plant; 0=no damage to plant); for pest or weed control at 62.5 g/ha: 62.5 g ai/ha, 100=total damage to plant, 0=no damage to plant, read-out: Velvetleaf damage rating; for pest or weed control at 250 g/ha: 250 g ai/ha
Outline: as §1

[7] = system: barnyardgrass (Echinochloa crus-galli); assay: Test G Post-Emergence Protocol; conditions: Echinochloa crus-galli, post-emergence, 312 h, read-out: Barnyardgrass damage rating; for pest or weed control at 15.625 g/ha: 15.625 g ai/ha, evaluated after 13 days (100=total damage to plant; 0=no damage to plant); for pest or weed control at 62.5 g/ha: 62.5 g ai/ha; for pest or weed control at 62.5 g/ha / pest or weed control at 250 g/ha: evaluated after 13 days, 100=total damage to plant, 0=no damage to plant; for pest or weed control at 250 g/ha: 250 g ai/ha
Outline: (§2)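 Values are percent visual injury at 13 days after treatment (0 none, 100 total). Treatment was a post-emergence spray at 15.625, 62.5 or 250 g/ha on 8-day-old pot plants kept at 24/16 °C.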

corn (Zea mays) [8] = assay: Test G Post-Emergence Protocol; conditions: Zea mays, post-emergence, 312 h, read-out: Corn damage rating; for plant injury at 15.625 g/ha: 15.625 g ai/ha, evaluated after 13 days (100=total damage to plant; 0=no damage to plant); for plant injury at 62.5 g/ha: 62.5 g ai/ha; for plant injury at 62.5 g/ha / plant injury at 250 g/ha: evaluated after 13 days, 100=total damage to plant, 0=no damage to plant; for plant injury at 250 g/ha: 250 g ai/ha
Outline: as §2

[9] = system: giant foxtail (Setaria faberi); assay: Test G Post-Emergence Protocol; conditions: Setaria faberi, post-emergence, 312 h, read-out: Foxtail, Giant damage rating; for pest or weed control at 15.625 g/ha: 15.625 g ai/ha, evaluated after 13 days (100=total damage to plant; 0=no damage to plant); for pest or weed control at 62.5 g/ha: 62.5 g ai/ha; for pest or weed control at 62.5 g/ha / pest or weed control at 250 g/ha: evaluated after 13 days, 100=total damage to plant, 0=no damage to plant; for pest or weed control at 250 g/ha: 250 g ai/ha
Outline: as §2

[10] = system: ivy-leaved morning glory (Ipomoea hederacea); assay: Test G Post-Emergence Protocol; conditions: Ipomoea, post-emergence, 312 h, read-out: Morningglory, Ivy-leaved damage rating; for pest or weed control at 15.625 g/ha: 15.625 g ai/ha, evaluated after 13 days (100=total damage to plant; 0=no damage to plant); for pest or weed control at 62.5 g/ha: 62.5 g ai/ha; for pest or weed control at 62.5 g/ha / pest or weed control at 250 g/ha: evaluated after 13 days, 100=total damage to plant, 0=no damage to plant; for pest or weed control at 250 g/ha: 250 g ai/ha
Outline: as §2

[11] = system: redroot pigweed (Amaranthus retroflexus); assay: Test G Post-Emergence Protocol; conditions: Amaranthus retroflexus, post-emergence, 312 h, read-out: Pigweed, Redroot damage rating; for pest or weed control at 15.625 g/ha: 15.625 g ai/ha, evaluated after 13 days (100=total damage to plant; 0=no damage to plant); for pest or weed control at 62.5 g/ha: 62.5 g ai/ha; for pest or weed control at 62.5 g/ha / pest or weed control at 250 g/ha: evaluated after 13 days, 100=total damage to plant, 0=no damage to plant; for pest or weed control at 250 g/ha: 250 g ai/ha
Outline: as §2

[12] = system: velvetleaf (Abutilon theophrasti); assay: Test G Post-Emergence Protocol; conditions: Abutilon theophrasti, post-emergence, 312 h, read-out: Velvetleaf damage rating; for pest or weed control at 15.625 g/ha: 15.625 g ai/ha, evaluated after 13 days (100=total damage to plant; 0=no damage to plant); for pest or weed control at 62.5 g/ha: 62.5 g ai/ha; for pest or weed control at 62.5 g/ha / pest or weed control at 250 g/ha: evaluated after 13 days, 100=total damage to plant, 0=no damage to plant; for pest or weed control at 250 g/ha: 250 g ai/ha
Outline: as §2

SMILES: Cc1cc([C@H]2CN(C)C(=O)[C@@H]2C(=O)Nc2ccc(F)c(F)c2F)cnn1 (racemic) [Compound 1663]
- pest or weed control at 15.625 g/ha [1]: 0%
- pest or weed control at 62.5 g/ha [1]: 0%
- pest or weed control at 250 g/ha [1]: 0%
- plant injury at 15.625 g/ha (corn (Zea mays) [2]): 0%
- plant injury at 62.5 g/ha (corn (Zea mays) [2]): 0%
- plant injury at 250 g/ha (corn (Zea mays) [2]): 0%
- pest or weed control at 15.625 g/ha [3]: 0%
- pest or weed control at 62.5 g/ha [3]: 0%
- pest or weed control at 250 g/ha [3]: 0%
- pest or weed control at 15.625 g/ha [4]: 0%
- pest or weed control at 62.5 g/ha [4]: 0%
- pest or weed control at 250 g/ha [4]: 0%
- pest or weed control at 15.625 g/ha [5]: 0%
- pest or weed control at 62.5 g/ha [5]: 0%
- pest or weed control at 250 g/ha [5]: 0%
- pest or weed control at 15.625 g/ha [6]: 0%
- pest or weed control at 62.5 g/ha [6]: 0%
- pest or weed control at 250 g/ha [6]: 0%
- pest or weed control at 15.625 g/ha [7]: 0%
- pest or weed control at 62.5 g/ha [7]: 0%
- pest or weed control at 250 g/ha [7]: 0%
- plant injury at 15.625 g/ha (corn (Zea mays) [8]): 0%
- plant injury at 62.5 g/ha (corn (Zea mays) [8]): 0%
- plant injury at 250 g/ha (corn (Zea mays) [8]): 0%
- pest or weed control at 15.625 g/ha [9]: 0%
- pest or weed control at 62.5 g/ha [9]: 0%
- pest or weed control at 250 g/ha [9]: 0%
- pest or weed control at 15.625 g/ha [10]: 0%
- pest or weed control at 62.5 g/ha [10]: 0%
- pest or weed control at 250 g/ha [10]: 0%
- pest or weed control at 15.625 g/ha [11]: 0%
- pest or weed control at 62.5 g/ha [11]: 0%
- pest or weed control at 250 g/ha [11]: 0%
- pest or weed control at 15.625 g/ha [12]: 0%
- pest or weed control at 62.5 g/ha [12]: 0%
- pest or weed control at 250 g/ha [12]: 0%

SMILES: CCS(=O)(=O)c1ccccc1NC(=O)[C@H]1C(=O)N(C)C[C@@H]1c1ccc(C(F)(F)F)cc1 (racemic) [Compound 1664]
- pest or weed control at 15.625 g/ha [1]: 0%
- pest or weed control at 62.5 g/ha [1]: 40%
- pest or weed control at 250 g/ha [1]: 80%
- plant injury at 15.625 g/ha (corn (Zea mays) [2]): 0%
- plant injury at 62.5 g/ha (corn (Zea mays) [2]): 0%
- plant injury at 250 g/ha (corn (Zea mays) [2]): 80%
- pest or weed control at 15.625 g/ha [3]: 30%
- pest or weed control at 62.5 g/ha [3]: 70%
- pest or weed control at 250 g/ha [3]: 90%
- pest or weed control at 15.625 g/ha [4]: 0%
- pest or weed control at 62.5 g/ha [4]: 0%
- pest or weed control at 250 g/ha [4]: 0%
- pest or weed control at 15.625 g/ha [5]: 0%
- pest or weed control at 62.5 g/ha [5]: 20%
- pest or weed control at 250 g/ha [5]: 100%
- pest or weed control at 15.625 g/ha [6]: 0%
- pest or weed control at 62.5 g/ha [6]: 0%
- pest or weed control at 250 g/ha [6]: 20%
- pest or weed control at 15.625 g/ha [7]: 0%
- pest or weed control at 62.5 g/ha [7]: 60%
- pest or weed control at 250 g/ha [7]: 70%
- plant injury at 15.625 g/ha (corn (Zea mays) [8]): 0%
- plant injury at 62.5 g/ha (corn (Zea mays) [8]): 40%
- plant injury at 250 g/ha (corn (Zea mays) [8]): 80%
- pest or weed control at 15.625 g/ha [9]: 60%
- pest or weed control at 62.5 g/ha [9]: 80%
- pest or weed control at 250 g/ha [9]: 80%
- pest or weed control at 15.625 g/ha [10]: 0%
- pest or weed control at 62.5 g/ha [10]: 20%
- pest or weed control at 250 g/ha [10]: 30%
- pest or weed control at 15.625 g/ha [11]: 20%
- pest or weed control at 62.5 g/ha [11]: 80%
- pest or weed control at 250 g/ha [11]: 80%
- pest or weed control at 15.625 g/ha [12]: 0%
- pest or weed control at 62.5 g/ha [12]: 10%
- pest or weed control at 250 g/ha [12]: 20%
